The source made the active and inactive calls.
What was measured:
[1] = tested on: SN12C; experiment: Growth inhibition of human SN12C cells at 10 uM after 48 hrs by sulforhodamine B assay; assay type: functional
[2] = tested on: U-251; experiment: Growth inhibition of human U251 cells at 10 uM after 48 hrs by sulforhodamine B assay; assay type: functional; conditions: U-251, 48 h, read-out: GI
[3] = tested on: LOX IMVI; experiment: Growth inhibition of human LOXIMVI cells at 10 uM after 48 hrs by sulforhodamine B assay; assay type: functional
[4] = tested on: UACC-62; experiment: Growth inhibition of human UACC62 cells at 10 uM after 48 hrs by sulforhodamine B assay; assay type: functional
[5] = tested on: M14; experiment: Growth inhibition of human M14 cells at 10 uM after 48 hrs by sulforhodamine B assay; assay type: functional
[6] = tested on: OVCAR-3; experiment: Growth inhibition of human OVCAR3 cells at 10 uM after 48 hrs by sulforhodamine B assay; assay type: functional
[7] = tested on: MDA-MB-231; experiment: Growth inhibition of human MDA-MB-231 cells at 10 uM after 48 hrs by sulforhodamine B assay; assay type: functional
[8] = tested on: BT-549; experiment: Growth inhibition of human BT549 cells at 10 uM after 48 hrs by sulforhodamine B assay; assay type: functional; conditions: BT-549, 48 h, read-out: GI
[9] = tested on: DU-145; experiment: Growth inhibition of human DU145 cells at 10 uM after 48 hrs by sulforhodamine B assay; assay type: functional
[10] = tested on: HOP-62; experiment: Growth inhibition of human HOP62 cells at 10 uM after 48 hrs by sulforhodamine B assay; assay type: functional
[11] = tested on: HCT-15; experiment: Growth inhibition of human HCT15 cells at 10 uM after 48 hrs by sulforhodamine B assay; assay type: functional
[12] = tested on: HT-29; experiment: Growth inhibition of human HT-29 cells at 10 uM after 48 hrs by sulforhodamine B assay; assay type: functional
[13] = tested on: COLO 205; experiment: Growth inhibition of human COLO205 cells at 10 uM after 48 hrs by sulforhodamine B assay; assay type: functional
[14] = tested on: ACHN; experiment: Growth inhibition of human ACHN cells at 10 uM after 48 hrs by sulforhodamine B assay; assay type: functional
[15] = tested on: RXF 393; experiment: Growth inhibition of human RXF393 cells at 10 uM after 48 hrs by sulforhodamine B assay; assay type: functional
[16] = tested on: A549; experiment: Growth inhibition of human A549/ATCC cells at 10 uM after 48 hrs by sulforhodamine B assay; assay type: functional; conditions: A549, 48 h, read-out: GI
[17] = tested on: OVCAR-4; experiment: Growth inhibition of human OVCAR4 cells at 10 uM after 48 hrs by sulforhodamine B assay; assay type: functional
[18] = tested on: 786-0; experiment: Growth inhibition of human 786-0 cells at 10 uM after 48 hrs by sulforhodamine B assay; assay type: functional; conditions: 786-0, 48 h, read-out: GI
[19] = tested on: OVCAR-8; experiment: Growth inhibition of human OVCAR8 cells at 10 uM after 48 hrs by sulforhodamine B assay; assay type: functional; conditions: OVCAR-8, 48 h, read-out: GI
[20] = tested on: OVCAR-5; experiment: Growth inhibition of human OVCAR5 cells at 10 uM after 48 hrs by sulforhodamine B assay; assay type: functional
[21] = tested on: SK-MEL-2; experiment: Growth inhibition of human SK-MEL-2 cells at 10 uM after 48 hrs by sulforhodamine B assay; assay type: functional
[22] = tested on: HCT-116; experiment: Growth inhibition of human HCT116 cells at 10 uM after 48 hrs by sulforhodamine B assay; assay type: functional; conditions: HCT-116, 48 h, read-out: GI
[23] = tested on: SK-MEL-5; experiment: Growth inhibition of human SK-MEL-5 cells at 10 uM after 48 hrs by sulforhodamine B assay; assay type: functional
[24] = tested on: Malme-3M; experiment: Growth inhibition of human MALME-3M cells at 10 uM after 48 hrs by sulforhodamine B assay; assay type: functional; conditions: read-out: GI
[25] = tested on: MCF7; experiment: Growth inhibition of human MCF7 cells at 10 uM after 48 hrs by sulforhodamine B assay; assay type: functional; conditions: MCF7, 48 h, read-out: GI
[26] = tested on: NCI-H522; experiment: Growth inhibition of human NCI-H522 cells at 10 uM after 48 hrs by sulforhodamine B assay; assay type: functional
[27] = tested on: SR; experiment: Growth inhibition of human SR cells at 10 uM after 48 hrs by sulforhodamine B assay; assay type: functional; conditions: read-out: GI
[28] = tested on: SW-620; experiment: Growth inhibition of human SW620 cells at 10 uM after 48 hrs by sulforhodamine B assay; assay type: functional
[29] = tested on: SK-MEL-28; experiment: Growth inhibition of human SK-MEL-28 cells at 10 uM after 48 hrs by sulforhodamine B assay; assay type: functional, cell-based
[30] = tested on: NCI-H322M; experiment: Growth inhibition of human NCI-H322M cells at 10 uM after 48 hrs by sulforhodamine B assay; assay type: functional
[31] = tested on: T47D; experiment: Growth inhibition of human T47D cells at 10 uM after 48 hrs by sulforhodamine B assay; assay type: functional
[32] = tested on: PC-3; experiment: Growth inhibition of human PC3 cells at 10 uM after 48 hrs by sulforhodamine B assay; assay type: functional; conditions: PC-3, 48 h, read-out: GI
[33] = tested on: KM12; experiment: Growth inhibition of human KM12 cells at 10 uM after 48 hrs by sulforhodamine B assay; assay type: functional
[34] = tested on: RPMI-8226; experiment: Growth inhibition of human RPMI8226 cells at 10 uM after 48 hrs by sulforhodamine B assay; assay type: functional; conditions: RPMI-8226, 48 h, read-out: GI
[35] = tested on: TK-10; experiment: Growth inhibition of human TK10 cells at 10 uM after 48 hrs by sulforhodamine B assay; assay type: functional
[36] = tested on: MDA-MB-468; experiment: Growth inhibition of human MDA-MB-468 cells at 10 uM after 48 hrs by sulforhodamine B assay; assay type: functional
[37] = tested on: CCRF-CEM; experiment: Growth inhibition of human CCRF-CEM cells at 10 uM after 48 hrs by sulforhodamine B assay; assay type: functional; conditions: read-out: GI
[38] = tested on: IGROV-1; experiment: Growth inhibition of human IGROV1 cells at 10 uM after 48 hrs by sulforhodamine B assay; assay type: functional
[39] = tested on: MDA-MB-435; experiment: Growth inhibition of human MDA-MB-435 cells at 10 uM after 48 hrs by sulforhodamine B assay; assay type: functional
[40] = tested on: HOP-92; experiment: Growth inhibition of human HOP92 cells at 10 uM after 48 hrs by sulforhodamine B assay; assay type: functional; conditions: HOP-92, 48 h, read-out: GI
[41] = tested on: NCI-H23; experiment: Growth inhibition of human NCI-H23 cells at 10 uM after 48 hrs by sulforhodamine B assay; assay type: functional
[42] = tested on: K562; experiment: Growth inhibition of human K562 cells at 10 uM after 48 hrs by sulforhodamine B assay; assay type: functional
[43] = tested on: MOLT-4; experiment: Growth inhibition of human MOLT4 cells at 10 uM after 48 hrs by sulforhodamine B assay; assay type: functional
[44] = tested on: A498; experiment: Growth inhibition of human A498 cells at 10 uM after 48 hrs by sulforhodamine B assay; assay type: functional
[45] = tested on: SNB-75; experiment: Growth inhibition of human SNB75 cells at 10 uM after 48 hrs by sulforhodamine B assay; assay type: functional; conditions: SNB-75, 48 h, read-out: GI
[46] = tested on: HL-60(TB); experiment: Growth inhibition of human HL-60(TB) cells at 10 uM after 48 hrs by sulforhodamine B assay; assay type: functional
[47] = tested on: Hs-578T; experiment: Growth inhibition of human Hs 578T cells at 10 uM after 48 hrs by sulforhodamine B assay; assay type: functional

NS(=O)(=O)c1cnccc1N1CCN(c2ccccn2)CC1
4%: inhibition of growth at 10 µM ([1]; read-out: GI) | inhibition of growth at 10 µM ([41]; NCI-H23, 48 h, read-out: GI) | inhibition of growth at 10 µM ([42]; K562, 48 h, read-out: GI)
2%: inhibition of growth at 10 µM [16] | inhibition of growth at 10 µM [18] | inhibition of growth at 10 µM ([39]; MDA-MB-435, 48 h, read-out: GI)
8%: inhibition of growth at 10 µM ([9]; DU-145, 48 h, read-out: GI) | inhibition of growth at 10 µM [24] | inhibition of growth at 10 µM ([31]; read-out: GI)
24%: inhibition of growth at 10 µM ([44]; A498, 48 h, read-out: GI)
1%: inhibition of growth at 10 µM ([21]; SK-MEL-2, 48 h, read-out: GI) | inhibition of growth at 10 µM [22] | inhibition of growth at 10 µM ([28]; SW-620, 48 h, read-out: GI) | inhibition of growth at 10 µM [32] | inhibition of growth at 10 µM ([36]; MDA-MB-468, 48 h, read-out: GI)
3%: inhibition of growth at 10 µM [25]
inactive: growth inhibition (GI) [4] | growth inhibition (GI) [5] | growth inhibition (GI) [6] | growth inhibition (GI) [7] | growth inhibition (GI) [10] | growth inhibition (GI) [11] | growth inhibition (GI) [12] | growth inhibition (GI) [13] | growth inhibition (GI) [14] | growth inhibition (GI) [15] | growth inhibition (GI) [17] | growth inhibition (GI) [20] | growth inhibition (GI) [23] | growth inhibition (GI) [26] | growth inhibition (GI) [29] | growth inhibition (GI) [30] | growth inhibition (GI) [33] | growth inhibition (GI) [35] | growth inhibition (GI) [38] | growth inhibition (GI) [43] | growth inhibition (GI) [46]
6%: inhibition of growth at 10 µM [2] | inhibition of growth at 10 µM [8]
9%: inhibition of growth at 10 µM ([3]; read-out: GI)
11%: inhibition of growth at 10 µM [40]
5%: inhibition of growth at 10 µM [34] | inhibition of growth at 10 µM [37]
12%: inhibition of growth at 10 µM [19] | inhibition of growth at 10 µM [27] | inhibition of growth at 10 µM [45]

CCc1cc(CC)n(-c2ccncc2S(N)(=O)=O)n1
1%: inhibition of growth at 10 µM [2] | inhibition of growth at 10 µM ([6]; OVCAR-3, 48 h, read-out: GI) | inhibition of growth at 10 µM ([12]; HT-29, 48 h, read-out: GI) | inhibition of growth at 10 µM [16] | inhibition of growth at 10 µM [22] | inhibition of growth at 10 µM [32] | inhibition of growth at 10 µM [40]
7%: inhibition of growth at 10 µM ([26]; NCI-H522, 48 h, read-out: GI)
2%: inhibition of growth at 10 µM [8] | inhibition of growth at 10 µM [18] | inhibition of growth at 10 µM ([43]; MOLT-4, 48 h, read-out: GI)
4%: inhibition of growth at 10 µM ([11]; HCT-15, 48 h, read-out: GI) | inhibition of growth at 10 µM ([17]; OVCAR-4, 48 h, read-out: GI) | inhibition of growth at 10 µM [37]
3%: inhibition of growth at 10 µM [45]
13%: inhibition of growth at 10 µM ([13]; COLO 205, 48 h, read-out: GI)
inactive: growth inhibition (GI) [1] | growth inhibition (GI) [3] | growth inhibition (GI) [4] | growth inhibition (GI) [5] | growth inhibition (GI) [7] | growth inhibition (GI) [9] | growth inhibition (GI) [10] | growth inhibition (GI) [14] | growth inhibition (GI) [15] | growth inhibition (GI) [20] | growth inhibition (GI) [21] | growth inhibition (GI) [23] | growth inhibition (GI) [28] | growth inhibition (GI) [29] | growth inhibition (GI) [30] | growth inhibition (GI) [31] | growth inhibition (GI) [47] | growth inhibition (GI) [33] | growth inhibition (GI) [35] | growth inhibition (GI) [36] | growth inhibition (GI) [38] | growth inhibition (GI) [39] | growth inhibition (GI) [41] | growth inhibition (GI) [42] | growth inhibition (GI) [44] | growth inhibition (GI) [46]
5%: inhibition of growth at 10 µM [27]
10%: inhibition of growth at 10 µM [25]
9%: inhibition of growth at 10 µM [19] | inhibition of growth at 10 µM [24] | inhibition of growth at 10 µM [34]

Reference: ChEMBL document CHEMBL2434896, “Carbonic anhydrase inhibitors. Synthesis of heterocyclic 4-substituted pyridine-3-sulfonamide derivatives and their inhibition of the human cytosolic isozymes I and II and transmembrane tumor-associated isozymes IX and XII” (Eur J Med Chem, 2013)
